# Experimental data published in PubChem BioAssay (NCI).
#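 Tested at 5 concentrations; 48 h exposure; 96-well plates; endpoints linearly interpolated, else capped at highest concentration. GI50 is the concentration that inhibits growth by half. The concentration for full growth arrest is given as TGI.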
# Assays:
# Test in all cases: NCI-60 cell line screen, 48 h
# [1] = test system: BT-549 breast
# [2] = test system: 786-0 renal
# [3] = test system: MDA-MB-468 breast
# [4] = test system: SF-539 CNS
# [5] = test system: K-562 leukemia
# [6] = test system: HCT-15 colon
# [7] = test system: NCI-H460 lung
# [8] = test system: MDA-MB-231 breast
# [9] = test system: NCI-H23 lung
# [10] = test system: U251 CNS
# [11] = test system: SF-268 CNS
# [12] = test system: SK-MEL-5 melanoma
# [13] = test system: SK-MEL-2 melanoma
# [14] = test system: KM12 colon
# [15] = test system: SNB-75 CNS
# [16] = test system: SK-OV-3 ovarian
# [17] = test system: MALME-3M melanoma
# [18] = test system: A549 NSCLC
# [19] = test system: OVCAR-8 ovarian
# [20] = test system: IGROV1 ovarian
# [21] = test system: HCC-2998 colon
# [22] = test system: A498 renal
# [23] = test system: MCF7 breast
# [24] = test system: SW-620 colon
# [25] = test system: CAKI-1 renal
# [26] = test system: HS 578T breast
# [27] = test system: NCI-H226 lung
# [28] = test system: HT29 colon
# [29] = test system: SN12C renal
# [30] = test system: UACC-62 melanoma
# [31] = test system: RXF 393 renal
# [32] = test system: CCRF-CEM leukemia
# [33] = test system: HCT-116 colon
# [34] = test system: SF-295 CNS
# [35] = test system: PC-3 prostate
# [36] = test system: COLO 205 colon
# [37] = test system: ACHN renal
# [38] = test system: DU-145 prostate
# [39] = test system: UO-31 renal
# [40] = test system: HOP-92 NSCLC
# [41] = test system: M14 melanoma
# [42] = test system: OVCAR-4 ovarian
# [43] = test system: OVCAR-3 ovarian
# [44] = test system: OVCAR-5 ovarian
# [45] = test system: T-47D breast
# [46] = test system: LOX IMVI melanoma
# [47] = test system: RPMI-8226 leukemia
# [48] = test system: SK-MEL-28 melanoma
# [49] = test system: EKVX NSCLC
# [50] = test system: HOP-62 NSCLC
# [51] = test system: MOLT-4 leukemia
# [52] = test system: TK-10 renal
# [53] = test system: MDA-MB-435
# [54] = test system: NCI-H522 lung
# [55] = test system: UACC-257 melanoma
# [56] = test system: SR leukemia
# [57] = test system: SNB-19 CNS
# [58] = test system: HL-60(TB) leukemia
structure (smiles),measurement,setting,value
COc1ccc2nc(Cl)c(-c3cc(-c4ccccc4)nc(=O)[nH]3)cc2c1,GI50,[1],11.9 µM
same,TGI,[1],28.7 µM
same,GI50,[2],12.4 µM
same,TGI,[2],40.2 µM
same,GI50,[3],11.4 µM
same,TGI,[3],33.8 µM
same,GI50,[4],11.2 µM
same,TGI,[4],23.9 µM
same,GI50,[5],2980 nM
same,TGI,[5],59.2 µM
same,GI50,[6],6.66 µM
same,TGI,[6],33.6 µM
same,GI50,[7],5.69 µM
same,TGI,[7],20.6 µM
same,GI50,[8],16.7 µM
same,TGI,[8],43.7 µM
same,GI50,[9],12 µM
same,TGI,[9],32.7 µM
same,GI50,[10],4.45 µM
same,TGI,[10],19.9 µM
same,GI50,[11],14.6 µM
same,TGI,[11],35 µM
same,GI50,[12],16.8 µM
same,TGI,[12],31.5 µM
same,GI50,[13],18.5 µM
same,TGI,[13],40.9 µM
same,GI50,[14],4.25 µM
same,TGI,[14],17.1 µM
same,GI50,[15],13.1 µM
same,TGI,[15],37.1 µM
same,GI50,[16],20.9 µM
same,TGI,[16],51.2 µM
same,GI50,[17],15.9 µM
same,TGI,[17],31.9 µM
same,GI50,[18],20.7 µM
same,TGI,[18],> 100 µM
same,GI50,[19],16.6 µM
same,TGI,[19],88.8 µM
same,GI50,[20],17.9 µM
same,TGI,[20],44.1 µM
same,GI50,[21],16.5 µM
same,TGI,[21],31.8 µM
same,GI50,[22],26.1 µM
same,TGI,[22],74.3 µM
same,GI50,[23],4.22 µM
same,TGI,[23],31.6 µM
same,GI50,[24],6.44 µM
same,TGI,[24],35.1 µM
same,GI50,[25],12 µM
same,TGI,[25],28.9 µM
same,GI50,[26],24.8 µM
same,TGI,[26],> 100 µM
same,GI50,[27],12.7 µM
same,TGI,[27],41.7 µM
same,GI50,[28],18.3 µM
same,TGI,[28],40.8 µM
same,GI50,[29],19.4 µM
same,TGI,[29],59 µM
same,GI50,[30],13.8 µM
same,TGI,[30],28.6 µM
same,GI50,[31],13.3 µM
same,TGI,[31],33 µM
same,GI50,[32],2960 nM
same,TGI,[32],34.3 µM
same,GI50,[33],6.67 µM
same,TGI,[33],26.2 µM
same,GI50,[34],21.3 µM
same,TGI,[34],67.2 µM
same,GI50,[35],14.2 µM
same,TGI,[35],56 µM
same,GI50,[36],17 µM
same,TGI,[36],41.5 µM
same,GI50,[37],14.7 µM
same,TGI,[37],32.3 µM
same,GI50,[38],8.82 µM
same,TGI,[38],29.3 µM
same,GI50,[39],10.5 µM
same,TGI,[39],22.4 µM
same,GI50,[40],6.8 µM
same,TGI,[40],42.5 µM
same,GI50,[41],18.5 µM
same,TGI,[41],46.8 µM
same,GI50,[42],20.4 µM
same,TGI,[42],79.9 µM
same,GI50,[43],7.42 µM
same,TGI,[43],23.8 µM
same,GI50,[44],18.2 µM
same,TGI,[44],38.1 µM
same,GI50,[45],25.8 µM
same,TGI,[45],> 100 µM
same,GI50,[46],3.86 µM
same,TGI,[46],33.5 µM
same,GI50,[47],3.08 µM
same,TGI,[47],13.5 µM
same,GI50,[48],15.9 µM
same,TGI,[48],31 µM
same,GI50,[49],24 µM
same,TGI,[49],> 100 µM
same,GI50,[50],14.8 µM
same,TGI,[50],34.4 µM
same,GI50,[51],3.63 µM
same,TGI,[51],54.1 µM
same,GI50,[52],29 µM
same,TGI,[52],> 100 µM
same,GI50,[53],14.8 µM
same,TGI,[53],34.1 µM
same,GI50,[54],17 µM
same,TGI,[54],42.4 µM
same,GI50,[55],18.1 µM
same,TGI,[55],37.6 µM
same,GI50,[56],1550 nM
same,TGI,[56],5.47 µM
same,GI50,[57],10.7 µM
same,TGI,[57],26 µM
same,GI50,[58],5.32 µM
same,TGI,[58],33 µM
CCOC(=O)C1(Br)C(c2ccccc2)NC(=O)NC1(C)Br (configuration not stated),GI50,[3],24 µM
same,TGI,[3],70.5 µM
COc1cc2c(c(OC)c1OC)-c1ccc(N)c(=O)cc1[C@@H](NC(C)=O)CC2,GI50,[3],< 0.01 µM
O=Nc1c(-c2c(O)[nH]c3ccc([N+](=O)[O-])cc23)[nH]c2ccc(O)cc12,GI50,[3],0.359 µM
same,TGI,[3],2.85 µM
COc1ccc(N2Cc3cnc(Nc4ccccc4)nc3N([C@@H]3CC[C@@H](O)C3)C2=O)cc1,GI50,[3],6.65 µM
same,TGI,[3],> 25 µM
Cc1ccc(/C(=N\N=C(N)N)c2ccccc2)cc1,GI50,[3],0.426 µM
same,TGI,[3],5.83 µM
Cc1c(S(C)(=O)=O)c(-c2cc(F)cc(N3CCN(c4ccc(NS(=O)(=O)c5ccc(N[C@H](CCN6CCC(C(=O)OCCCP(=O)(O)O)CC6)CSc6ccccc6)c(S(=O)(=O)C(F)(F)F)c5)cc4)CC3)c2)c(-c2ccc(Cl)cc2)n1C(C)C,GI50,[3],> 100 µM
same,TGI,[3],> 100 µM
CC(C)CNCC(O)COc1ccc(C(C)(C)c2ccc(OCC(O)CNCC(C)C)cc2)cc1 (configuration not stated),GI50,[3],2.18 µM
same,TGI,[3],4.91 µM
CCn1c(C(=O)N(C2CC2)C2CC2)cc2c3c(ncn3C)c(Nc3cc(C)n(C)n3)nc21,GI50,[3],> 100 µM
same,TGI,[3],> 100 µM
C=C1SC(=Nc2c(C)cc(C)cc2C)N(C(=O)c2sc3ccccc3c2Cl)C12CCCCC2,GI50,[3],> 100 µM
same,TGI,[3],> 100 µM
C[C@H](NC(=O)[C@@H]1CSSC[C@@H](NC(=O)c2nc3ccccc3cc2O)C(=O)NCC(=O)N1C)c1ccccc1,GI50,[3],5.89 µM
same,TGI,[3],13.2 µM
CCCc1c(CC)c(=N)c2ccccc2n1C,GI50,[3],3.22 µM
same,TGI,[3],48.7 µM
